Assay results from patent US12624004B2 (Fudan University, priority 2019, dated 2026).
Counter-ions that a name gives are not always drawn. Like-named read-outs stand apart in the source and are kept apart here.

Assays:
[1] = target: T1, μ opioid receptor (Homo sapiens, UniProt P35372); assay: Competition binding assay on membranes of CHO cells expressing μ opioid receptor, [3H]-labeled ligand; conditions: for inhibition at 10 µM: Table 1-1, 10 μM concentration of compound, mean ± SD of three measurements, read-out: μOR Binding rate (%); for Ki: read-out: μOR Ki
T1 construct: expressed in transfected cells; host or cells: CHO cells (membranes)
Method: (§1) CHO cells expressing p opioid receptor, δ opioid receptor and κ opioid receptor were cultured in 10 cm^2 culture dishes (F-12 medium+10% neonatal bovine serum) for several days, and the culture fluid was aspirated after the cells had grown to the bottom of the dishes; 3 ml of PBS/EDTA solution (0.1M NaCl, 0.01M NaH2PO4, 0.04% EDTA) was added to digest the cells for 3-5 min. Add ice-cold homogenate (50 mM HEPES PH 7.4, 3 mM MgCl, 1 mM EGTA) to the centrifuge tube, transfer the solution and sediment to a homogenizer and homogenize; then transfer the homogenate to a centrifuge tube and centrifuge at 18000 rpm. Centrifuge for 15 min, two times; the obtained precipitate was homogenized with appropriate amount of 50 mM Tris-HCl, pH 7.4 buffer and divided into centrifuge tubes and stored at −70° C. in the refrigerator until use.
(§2) The total binding tube was spiked with 20-30 μg of the expressed membrane receptor protein and […] ligand (1-2 nM), the corresponding non-specific binding tube was spiked with 1 μM of the corresponding ligand, and the sample tubes were spiked with various screened opioid ligands in a final volume of […], incubated at 30° C. for 30 min, and the reaction was terminated in ice water. […] The samples were filtered under negative pressure through GF/C (whatman) glass fiber filter paper on a Millipore sample collector. The reaction was rinsed three times with 4 ml of 50 mMV Tris-HCl (pH 7.4), the filter paper was dried and placed in 0.5 ml Eppendorf tubes with 0.5 ml of lipophilic scintillation solution, the radioactivity was measured by PERKIN ELMER PRI-CARB 2910 liquid scintillation counter and the inhibition rate was calculated. Inhibition rate (or binding rate)=(total binding rate dpm−sample tube dpm)/(total binding tube dpm−non-specific binding tube dpm)×100%
(§3) IC50 was calculated using Prism 5.0 software. the Ki value was calculated as follows, Ki=IC50/(1+[IL]/Kd), [lL] is the concentration of the added labeled ligand and Kd is the equilibrium dissociation parameter of the labeled ligand.
(§4) CHO cells expressing p opioid receptor, δ opioid receptor and κ opioid receptor were cultured in a 10 cm^2 culture dish (F-12 medium+10% neonatal bovine serum) for several days, and the culture fluid was aspirated after the cells grew to the bottom of the dish. 3 mL PBS/EDTA solution (0.1 M NaCl, 0.01 M NaH2PO4, 0.04% EDTA) was added to digest the cells for 3˜5 min, blew with a pipette to completely dislodge the cells. The cells were collected in a 40 mL centrifuge tube, centrifuged at 5000 rpm for 5 min. The supernatant was removed and the ice-cold homogenate (50 mM HEPES pH 7.4, 3 mM MgCl2, 1 mM EGTA) was added to the centrifuge tube. The solution and the precipitate were transferred to a homogenizer. Then the homogenate was transferred to a centrifuge tube and centrifuged at 18000 rpm for 15 min. The precipitate was centrifuged twice at 18000 rpm for 15 min. The obtained precipitate was homogenized by adding appropriate amount of 50 mM Tris-HCl, pH 7.4 buffer and divided into centrifuge tubes and stored at −70° C. in the refrigerator until use.
(§5) The total binding tube was added with 20-30 μg of expressed membrane receptor protein and [3H]-labeled ligand (1-2 nM). The corresponding non-specific binding tube was added with 1 μM of the corresponding ligand, and the sample tubes were added with various screened opioid ligands in a final volume of 100 μL. All of them were incubated for 30 min at 30° C., and the reaction was terminated in ice water. The samples were filtered under negative pressure through GF/C (Whatman) glass fiber filter paper on a Millipore sample collector. The reaction was rinsed three times with 4 mL of 50 mM Tris-HCl (pH 7.4), the filter paper was dried and placed in 0.5 mL Eppendorf tubes with 0.5 mL of lipophilic scintillation solution. […]

[2] = target: T2, δ opioid receptor (Homo sapiens, UniProt P41143); assay: Competition binding assay on membranes of CHO cells expressing δ opioid receptor, [3H]-labeled ligand; conditions: for inhibition at 10 µM / inhibition at 1 µM: 0.5 h; for inhibition at 10 µM: Table 1-1, 10 μM concentration of compound; for Ki: read-out: δOR Ki; for inhibition at 1 µM: 1 μM concentration of compound
T2 construct: expressed in transfected cells; host or cells: CHO cells (membranes)
Method: as §1, §2, §3, §4, §5

[3] = target: T3, κ opioid receptor (Homo sapiens, UniProt P41145); assay: Competition binding assay on membranes of CHO cells expressing κ opioid receptor, [3H]-labeled ligand; conditions: for inhibition at 10 µM / inhibition at 1 µM: 0.5 h; for inhibition at 10 µM: 10 μM concentration of compound; for Ki: read-out: κOR Ki; for inhibition at 1 µM: 1 μM concentration of compound
T3 construct: expressed in transfected cells; host or cells: CHO cells (membranes)
Method: as §1, §2, §3, §4, §5

[4] = Table 1-1, read-out: κOR Binding rate (%)
[5] = Table 4-1, read-out: δOR Binding rate (%)
[6] = Table 4-1, read-out: κOR Binding rate (%)

| SMILES | inhibition at 10 µM [1] [%] | inhibition at 10 µM ([2]; read-out: δOR Binding rate (%)) [%] | inhibition at 10 µM [3, 4] [%] | Ki ([1]; Table 4-1) [nM] | also measured |
| --- | --- | --- | --- | --- | --- |
| COc1cccc(C2(OC(=O)c3ccccc3)CCC(N(C)S(=O)(=O)Cc3ccccc3)CC2CN(C)C)c1 (stereo not drawn) | 81.2 ± 4.2 | 30.1 ± 14.9 | 35.7 ± 3 | – | – |
| COc1cccc(C2(OC(=O)c3ccccc3)CCC(NS(=O)(=O)c3ccccc3)CC2CN(C)C)c1 (stereo not drawn) | 80.9 ± 4.4 | 17.4 ± 2.5 | 51.5 ± 6.6 | – | – |
| COc1cccc(C2(OC(=O)c3ccccc3)CCC(N(C)S(=O)(=O)Cc3cccc(Cl)c3)CC2CN(C)C)c1 (stereo not drawn) | 89.8 ± 4.6 | 4.8 | 25.5 ± 6.1 | – | – |
| COc1cccc(C2(O)CCC(N(Cc3ccccc3)S(=O)(=O)c3cccc(Cl)c3)CC2CN(C)C)c1 (stereo not drawn) | 85.8 ± 3.2 | 5.1 | – | – | Ki ([3]; Table 1-1): 9.81 ± 0.32 nM |
| COc1cccc(C2(O)CCC(N(Cc3ccccc3)S(=O)(=O)c3ccccc3)CC2CN(C)C)c1 (stereo not drawn) | 70.5 ± 2.3 | 9.53 | 84.7 ± 2.1 | – | – |
| CN(C)C[C@@H]1CN(C(=O)Cc2cc(F)c(F)cc2F)CC[C@@]1(O)c1cccc(O)c1 | – | – | – | 1.77 ± 0.18 | Ki ([2]; Table 4-1): 178 ± 17.9 nM; Ki ([3]; Table 4-1): 127 ± 1.6 nM |
| COc1cccc([C@]2(O)CCN(C(=O)Cc3cc(F)c(F)cc3F)C[C@H]2CN(C)C)c1 | – | – | – | 165 ± 22.3 | inhibition at 1 µM [2, 5]: 26.6 ± 3.9%; inhibition at 1 µM [3, 6]: 33 ± 4.1% |
| CN(C)C[C@H]1CN(C(=O)Cc2cc(F)c(F)cc2F)CC[C@]1(O)c1cccc(O)c1 | – | – | – | 53.5 ± 0.09 | Ki ([2]; Table 4-1): 3560 ± 96.5 nM; Ki ([3]; Table 4-1): 42.3 ± 0.6 nM |
| COc1cccc([C@@]2(O)CCN(C(=O)Cc3cc(F)c(F)cc3F)C[C@@H]2CN(C)C)c1 | – | – | – | 2310 ± 234 | inhibition at 1 µM [2, 5]: 0%; inhibition at 1 µM [3, 6]: 23.4 ± 3.9% |
| COc1cccc(C2(O)CCC(S(=O)(=O)Cc3ccccc3)CC2CN(C)C)c1 (stereo not drawn) [4-(Benzylsulfonyl)-2-((dimethylamino)methyl)-1-(3-methoxyphenyl) cyclohexane-1-ol hydrochloride] | 98.6 ± 1.2 | 44 ± 7.85 | 47.7 ± 3.1 | – | – |
| CN(C)C[C@@H]1CN(S(=O)(=O)Cc2ccccc2)CC[C@@]1(O)c1cccc(O)c1 [(3R,4S)-1-(Benzylsulfonyl)-3-((dimethylamino)methyl)-4-(3-hydroxyphenyl)piperidin-4-ol hydrochloride] | – | – | – | 0.17 ± 0.01 | Ki ([2]; Table 4-1): 1100 ± 42 nM; Ki ([3]; Table 4-1): 33.7 ± 3.26 nM |
| COc1cccc([C@]2(O)CCN(S(=O)(=O)Cc3ccccc3)C[C@H]2CN(C)C)c1 [(3R,4S)-1-(Benzylsulfonyl)-3-((dimethylamino)methyl)-4-(3-methoxyphenyl)piperidin-4-ol hydrochloride salt] | – | – | – | – | inhibition at 0.1 µM ([1]; Table 4-1 footnote a, 0.1 μM, read-out: μOR Inhibition rate): 27.5 ± 1.54%; inhibition at 0.1 µM ([2]; Table 4-1 footnote a, 0.1 μM, read-out: δOR Inhibition rate): 10.5 ± 3.7%; inhibition at 0.1 µM ([3]; Table 4-1 footnote a, 0.1 μM, read-out: κOR Inhibition rate): 15.2 ± 1.56% |
| CN(C)C[C@H]1CN(S(=O)(=O)Cc2ccccc2)CC[C@]1(O)c1cccc(O)c1 [(3S,4R)-1-(Benzylsulfonyl)-3-((dimethylamino)methyl)-4-(3-hydroxyphenyl)piperidin-4-ol hydrochloride] | – | – | – | 38.3 ± 1.18 | Ki ([2]; Table 4-1): 1089 ± 9 nM; Ki ([3]; Table 4-1): 231 ± 13.1 nM |
| COc1cccc(C2(O)CCN(C(=O)Cc3ccccc3Cl)CC2CN(C)C)c1 (stereo not drawn) [FWBE20, 2-(2-Chlorophenyl)-1-(3-((dimethylamino)methyl)-4-hydroxy-4-(3-methoxyphenyl)piperidin-1-yl)ethyl-1-one hydrochloride] | – | – | – | – | inhibition at 1 µM ([1]; 0.5 h, Table 5-1, 1 μM concentration of compound, read-out: μOR Combination rate (%)): 28.3 ± 7.2%; inhibition at 1 µM ([2]; Table 5-1, read-out: δOR Combination rate (%)): 0%; inhibition at 1 µM ([3]; Table 5-1, read-out: κOR Combination rate (%)): 34.8 ± 0.7% |
| COc1cccc(C2(O)CCC(NS(=O)(=O)c3ccccc3)CC2CN(C)C)c1 (stereo not drawn) [N-(3-((Dimethylamino)methyl)-4-hydroxy-4-(3-methoxyphenyl)cyclohexyl) benzenesulfonamide hydrochloride] | 75.8 ± 4.1 | 38 ± 2.43 | 25.8 ± 7.9 | – | – |
| CN(C)CC1CN(S(=O)(=O)Cc2ccccc2)CCC1(O)c1cccc(OC(F)(F)F)c1.Cl (stereo not drawn) [hydrochloride] | – | – | – | – | Ki ([1]; Table 2-1): 64.5 ± 1.76 nM; inhibition at 1 µM ([2]; Table 2-1, read-out: δOR Binding rate (%)): 40.8 ± 2.23%; inhibition at 1 µM ([3]; Table 2-1, read-out: κOR Binding rate (%)): 21.4 ± 0.36% |
| COc1cccc(C2(OC(F)F)CCN(S(=O)(=O)Cc3ccccc3)CC2CN(C)C)c1.Cl (stereo not drawn) [hydrochloride] | – | – | – | – | inhibition at 0.1 µM ([1]; Table 2-1 footnote a, at 0.1 μM, read-out: μOR Inhibition rate or binding rate): 22.6 ± 9.8%; inhibition at 0.1 µM ([2]; Table 2-1 footnote a, at 0.1 μM, read-out: δOR Inhibition rate or binding rate): 0%; inhibition at 0.1 µM ([3]; Table 2-1 footnote a, at 0.1 μM, read-out: κOR Inhibition rate or binding rate): 15.5 ± 4.1% |
